Measurements reported in a melting point compilation (Tetko et al.).

Row | SMILES | melting point
1 | CCCOC(=O)c1ccc(S(=O)(=O)Cl)cc1 | 36 to 38 °C
2 | O=C(O)c1cc(-c2cccnc2)on1 | 179 to 181 °C
3 | CCCn1c(C)cc(/C=C(\C#N)C(=O)O)c1C | 199 to 201 °C
4 | O=C(CCl)NC(=O)Nc1ccc2c(c1)OCCO2 | 128 to 130 °C
5 | O=C1CCNc2ccccc2N1 | 132 to 134 °C
6 | CC(C)(C)OC(=O)N1CCC(C)(C(=O)O)CC1 | 149 to 151 °C
7 | COc1cccc(C2(C(=O)O)CCCC2)c1 | 125 to 127 °C
8 | Cc1ccc(NC(=O)N(C)C)c(C(=O)O)c1 | 163 to 165 °C
9 | CCC(c1ccccc1)c1nnc(N)o1 (centres undefined) | 197 to 199 °C
10 | CC(C)CN(CC(C)C)C(=O)CC(=O)N(CC(C)C)CC(C)C | 51 to 53 °C
11 | Nc1cc([N+](=O)[O-])ccc1C(=O)O | 257 to 259 °C
12 | CC(C)(NC(=O)NCc1cccc(Br)c1)C(=O)O | 159 to 161 °C
13 | Cc1ncc(C(=O)O)c(C(C)C)n1 | 168 to 170 °C
14 | COC(=O)c1cc(C)cc([N+](=O)[O-])c1N | 106 to 108 °C
15 | CC(C)C(Br)C(=O)NCC1CCCO1 (centres undefined) | 53 to 55 °C
16 | COC(=O)CCS(=O)(=O)c1ccc(Br)cc1 | 75 to 77 °C
17 | Nc1nc(-c2cccnc2)cs1 | 189 to 193 °C
18 | O=C(O)Cc1coc(-c2ccc(F)c(F)c2)n1 | 144 to 146 °C
19 | N#Cc1ccc(N2CCOC2=O)cc1 | 149 to 151 °C
20 | O=C(O)c1ccc(NC(=O)c2cc(Cl)cc(Cl)c2)cc1 | 305 to 307 °C
21 | Cc1cc(Cl)ccc1OC(C(=O)O)c1ccccc1 (centres undefined) | 122 to 124 °C
22 | O=C(O)c1nc2ncc(Br)cn2n1 | 199 to 201 °C
23 | CC(C)c1cc(C(=O)O)nn1-c1ccncc1 | 225 to 227 °C
24 | Nc1nc(Cl)c(C=O)c(N2CCOCC2)n1 | 173 to 175 °C
25 | Cc1ccc(CC(=O)Nc2cccc(C(C)O)c2)cc1 (centres undefined) | 121 to 123 °C
26 | CCNS(=O)(=O)c1ccc(Cl)nc1 | 73 to 75 °C

Row | SMILES | melting point
27 | CCNc1nc(C(=O)OCC)cs1 | 92 to 94 °C
28 | Cc1cc(C)c2c(=O)[nH][nH]c2n1 | 249 to 251 °C
29 | Cc1nccn1-c1ccc(Cl)nn1 | 122 to 124 °C
30 | COc1ccc2nc(C(=O)O)ccc2c1 | 184 to 186 °C
31 | CNS(=O)(=O)Cc1ccc(CN)cc1 | 140 to 142 °C
32 | O=C1CNC(=O)c2sccc2N1 | 239 to 241 °C
33 | CNC(=O)COc1ccc(C=O)cc1OC | 105 to 107 °C
34 | Cn1cc(C(=O)O)c(Cl)n1 | 209 to 211 °C
35 | COC(=O)c1c[nH]c2cccc(F)c12 | 159 to 161 °C
36 | NC(=O)Cn1cc([N+](=O)[O-])cn1 | 167 to 169 °C
37 | COCc1ccccc1C(=O)O | 94 to 96 °C
38 | CC(=O)Nc1ncccc1N | 135 to 137 °C
39 | O=C(O)Cc1csc(N2CCNC2=O)n1 | 179 to 181 °C
40 | O=C(O)CNC(=O)C1c2ccccc2C(=O)N1C1CC1 (centres undefined) | 242 to 244 °C
41 | CC(=O)N1CCN(C(=O)CCC(=O)O)CC1 | 110 to 116 °C
42 | O=C(O)c1cnc(-c2ncccn2)s1 | 217 to 219 °C
43 | O=C(O)CCn1cc(Br)cn1 | 112 to 114 °C
44 | Fc1ccccc1-c1nc(CCl)cs1 | 64 to 66 °C
45 | CCc1cc(=O)c2ccccc2[nH]1 | 174 to 176 °C
46 | COc1cc(C(=O)O)ccc1OC(C)C | 140 to 142 °C
47 | NC(=S)c1ccco1 | 132 to 134 °C
48 | Nc1cncc(Cl)c1Cl | 97 to 99 °C
49 | O=[N+]([O-])c1cc(S(=O)(=O)Cl)c(Br)cc1F | 80 to 82 °C
50 | CCC(Nc1nc(C)cs1)C(=O)O (centres undefined) | 173 to 175 °C
51 | NCc1cn(-c2ccccc2)nc1-c1ccccc1 | 61 to 63 °C
52 | NC(=O)c1ccc(-n2cccc2)cc1 | 237 to 239 °C

Row | SMILES | melting point
53 | O=C(O)c1nc(OCC2CC2)c2ccccc2n1 | 109 to 111 °C
54 | Fc1ccc(-c2nnc(Cl)c3ccccc23)cc1F | 164 to 166 °C
55 | Cc1c(C(=O)O)nnn1-c1cccc(Cl)c1 | 179 to 181 °C
56 | COc1ccc(S(N)(=O)=O)c(N)c1 | 139 to 141 °C
57 | NC(CC(=O)NC1CCCC1)=NO | 119 to 121 °C
58 | Cn1c(N)nccc1=O | 257 to 259 °C
59 | CC(C)c1nnc(S)n1C | 139 to 141 °C
60 | COC(=O)c1cc(S(=O)(=O)Cl)c(Cl)cc1Cl | 110 to 112 °C
61 | Cc1ccn(-c2cccc(C(=O)O)c2)n1 | 198 to 200 °C
62 | Nc1ccc(Cl)c(CO)n1 | 147 to 149 °C
63 | O=C(CO)N1CCc2ccccc2C1 | 99 to 101 °C
64 | O=C(O)Cc1cc(=O)n(C2CCS(=O)(=O)C2)[nH]1 (centres undefined) | 168 to 170 °C
65 | Oc1ccc(-c2nc(-c3ccccc3)cs2)cc1 | 148 to 150 °C
66 | Sc1ncc(-c2ccc(Cl)cc2)n1-c1ccccc1 | 283 to 285 °C
67 | Cc1ccc(Cl)cc1C(N)=O | 150 to 152 °C
68 | CCOc1ccc(C2CCCN2)cc1 (centres undefined) | < 17 °C
69 | COc1ccc(C)cc1NCCCC(=O)O | 99 to 101 °C
70 | Cc1nnc2c(Cl)cccn12 | 163 to 165 °C
71 | N#Cc1cccc(NC(=O)OCC(F)(F)F)c1 | 133 to 135 °C
72 | c1ccc(CNc2nc3ccccc3[nH]2)cc1 | 147 to 149 °C
73 | Cc1nn(-c2ccccc2)c(Oc2ccc(F)cc2)c1C=O | 105 to 107 °C
74 | COc1ccccc1CN1C(=O)C=CC1=O | 93 to 95 °C
75 | N#Cc1c(SCC(=O)O)nc2c(c1-c1ccco1)CCCC2 | 209 to 211 °C
76 | CC(=O)c1cccc(OC(C)C(=O)O)c1 (centres undefined) | 93 to 95 °C
77 | CCOP(=O)(Cc1cc(Cl)ccc1Cl)OCC | 53 to 55 °C
78 | COc1ccc2oc(C(=O)O)c(C)c2c1 | 202 to 204 °C

Row | SMILES | melting point
79 | COc1ccc(OC(C)C(=O)O)cc1 (centres undefined) | 91 to 93 °C
80 | Cc1csc(Sc2ccc(N)cc2)n1 | 99 to 101 °C
81 | CNc1cccc([N+](=O)[O-])c1 | 65 to 67 °C
82 | NC1CCCCC1O (centres undefined) | 162 to 164 °C
83 | COC(=O)c1ccc2c(c1)NCC(=O)N2 | 252 to 254 °C
84 | CCc1c(C(=O)CCl)[nH]c(C)c1C(C)=O | 143 to 145 °C
85 | OC1(c2ccccc2)CCC1 | 39 to 41 °C
86 | CN(C)CCc1ccc(C(=O)O)cc1 | 163 to 165 °C
87 | NC(=O)c1sccc1-c1ccccc1 | 114 to 116 °C
88 | Brc1ccc(OCCc2ccccc2)cc1 | 49 to 51 °C
89 | O=C(O)Cc1ccc([N+](=O)[O-])cc1Br | 164 to 166 °C
90 | COc1cc(OC)c([N+](=O)[O-])cc1F | 152 to 154 °C
91 | CC(C)(C)C1CCc2sc(C(=O)O)cc2C1 (centres undefined) | 169 to 171 °C
92 | C1CCC(c2nnn[nH]2)CC1 | 109 to 111 °C
93 | Fc1cc2nc(Cl)ccc2cc1Br | 161 to 163 °C
94 | NCc1ccn(-c2ccc(F)cc2)n1 | 56 to 58 °C
95 | N#CC1=C(N)CCC1 | 146 to 148 °C
96 | O=C(O)Cc1ccc(NC(=O)c2ccccc2I)cc1 | 226 to 228 °C
97 | COc1cc(C(=O)O)c(F)cc1N | 189 to 191 °C
98 | NC(=O)NC(CC(=O)O)c1cccc(Br)c1 (centres undefined) | 159 to 161 °C
99 | Cn1c(C(=O)O)ccc1-c1ccc(F)cc1 | 159 to 161 °C
100 | CN(C)S(=O)(=O)c1ccc(=O)[nH]c1 | 212 to 216 °C
101 | Cc1ccc(NS(C)(=O)=O)c(N)c1 | 116 to 118 °C
102 | Fc1ccc2c(Cl)ccnc2c1 | 71 to 73 °C
103 | Cc1nc(CC(N)=NO)cs1 | 139 to 141 °C
104 | CC(C)n1cnnc1-c1ccccc1N | 97 to 99 °C
